Read-outs that look alike come from different tables or passages of the source. Bridge positions count the residues as written; N and C are the ends. Square brackets hold non-standard residues; d marks the D form. Peptide text beside a SMILES is read from it. * marks the point of attachment. Ileψ(thiazoline)Cys = CC[C@H](C)[C@H](N)C1=N[C@H](C(=O)*)CS1; dOrn = NCCC[C@@H](N)C(=O)O
Experiments:
[1] = tested on: spore suspension of B. atropheus; experiment: Bacterial suspension assay, spores; assay type: cell-based; conditions: 5, and 20 minute time points at 20° C.; Bacitracin 33 Units/ml
Experimental: Dermacyn is a ready to use product, therefore performing dilutions during testing was not required.
A purchased spore suspension of B. atropheus at 2.5×10^7 /ml was used for testing. In addition fresh suspensions of Pseudomonas aeruginosa, and Staphylococcus aureus were prepared and measured using a spectrophotometer to ensure the titer was acceptable
Nine microliters of test substance was added to 100 ul of microbe suspension. The test mixture was held at 20° C. for the contact times of 20 seconds, 5 minutes, and 20 minutes. 1.0 ml of the test mixture (entire mixture) was added to 9,0 ml of neutralizer for 20 minutes (this is the original neutralization tube or ONT) 1.0 ml of the neutralized test mixture was plated on Tryptic Soy Agar in duplicate for the 5 minute and 20 minute contact times. Additional dilutions and spread plates were used for the 20 second time point, to achieve countable plates.
All plates were incubated at 30° C.-35° C. for a total of 3 days and were evaluated after each day of incubation.

[2] = tested on: Pseudomonas aeruginosa, and Staphylococcus aureus; experiment: Bacterial suspension assay, vegetative bacteria; assay type: cell-based; conditions: all time points (20 seconds, 5 minutes, 20 minutes) at 20° C.; Bacitracin 33 Units/ml
[3] = tested on: human diploid fibroblasts (HDFs); assay type: cell-based; conditions: 880 mM
Experimental: HP is known to be toxic to eukaryotic cells, increasing apoptosis and necrosis and reducing cellular viability. […] HDF cultures were obtained from three different foreskins, which were pooled and cryopreserved together for the purpose of this study. Only diploid cells were used for all experiments. […] Simultaneous analyses of these parameters were performed in the same cell populations by flow cytometry using: […] B) Annexin V-FITC; and C) Propidium iodide. FIG. 4A-4C disclose percentage values expressed as mean±SD (n=3).

[4] = tested on: human diploid fibroblasts (HDFs); conditions: 1 month, 5 μM

cells with SA-β-Gal expression [4]	RNA degradation (human cell cultures)	Structure (SMILES)	log reduction of spores [1]	log reduction of the vegetative bacteria [2]	Cell viability ([3]; 5 min)	apoptosis (Annexin-V) ([3]; 5 min)	necrosis (cells incorporating propidium iodide) ([3]; 5 min)	Cell viability ([3]; 30 min)	apoptosis (Annexin-V) ([3]; 30 min)	necrosis (cells incorporating propidium iodide) ([3]; 30 min)
		CC[C@H](C)[C@H](N)C1=N[C@H](C(=O)N[C@@H](CC(C)C)C(=O)N[C@H](CCC(=O)O)C(=O)N[C@H](C(=O)N[C@H]2CCCCNC(=O)[C@H](CC(N)=O)NC(=O)[C@@H](CC(=O)O)NC(=O)[C@H](Cc3cnc[nH]3)NC(=O)[C@@H](Cc3ccccc3)NC(=O)[C@H]([C@@H](C)CC)NC(=O)[C@@H](CCCN)NC2=O)[C@@H](C)CC)CS1 [Bacitracin] ({Ileψ(thiazoline)Cys}-L[dE]IK[dOrn]I[dF]H[dD]N; lactam 4-C)	no evidence of lowering the bacterial or spore populations	no evidence of lowering the bacterial or spore populations						
86%	significant RNA degradation	OO [HP, hydrogen peroxide]			55%	15%	20%	5%	20%	75%
